Patent US20080081801A1, “PORPHYRIN OXYGEN INFUSION FOR INCREASING CONCENTRATIONS IN TUMOR TISSUES” (priority 2002, published 2008)

Test system: Ascites hepatoma LY80
Test: Oxygen partial pressure in tumor tissues of tumor-bearing rats after intra-arterial injection of the sample (phosphorescence quenching, PdPor, OxySpot)
Assay type: in vivo, Donryu rats
Settings: oxygen-saturated sample
Method: Animals with cancer were prepared by transplanting tumor cells in desired sites of laboratory animals such as, for example, rats, hamsters, rabbits or beagles.
Rats were bred for several days until tumors develop and then subjected to experiments under anesthesia (e.g., using Nembutal, diethyl ether or halothane anesthetic gas). Rats were intubated through the cervical trachea and ventilated under positive pressure by a respirator. A polyethylene catheter was inserted into a left carotid artery so that a distal end of the catheter is located at a position short of a bifurcation of the common iliac artery, and then backward cannulation was carried out to provide an administration rout of sample in the descending aorta.
The oxygen partial pressure in the tumor tissues may be determined by intravenously injecting a phosphorescent probe (palladium coproporphyrin (PdPor)), irradiating light, and monitoring a phosphorescence quenching time with an oxygen partial pressure monitor. PdPor is intravenously injected through a tail vein at 5-20 minutes before administration of the sample. […] The oxygen partial pressure in the tumor site of the right leg was measured at 5 to 30 points in air or an atmosphere containing 99% oxygen with a device for measurement of an oxygen partial pressure (e.g., OxySpot (Trademark) made by Medical System Corp.), and served as controls. […]

For “bovine serum albumin: serum albumin, injected oxygen-saturated without porphyrin”, the “change in the oxygen partial pressure (PO2) in the tumor tissue” value was “no change”.
